Reference: patent publication US3988340A, “6-Alkoxymethyl-1,2,3,5-tetrahydroimidazo[2,1-b]quinazolin-2-ones and 7-alkoxymethyl-6-[H]-1,2,3,4-tetrahydropyrimido[2,1-b]quinazolin-2-ones” (Bristol-Myers Company, priority 1975, dated 1976)
≈ marks a conversion by molar mass, not a printed value. Read-outs that look alike come from different tables or passages of the source.

Key:
[1] = Crystal formation in the liver of dogs at very high doses; format: in vivo, dog; settings: compound or a metabolite
[2] = Mean aortic blood pressure in rats after oral administration; format: in vivo; settings: 50 mg/kg oral; for Mean Aortic Blood Pressure % Change / Mean Aortic Blood Pressure: N=9, mean ± 1 S.E.
Procedure: The blood pressure of unanesthetized rats and dogs was measured directly by means of a transducer attached to an intra-arterial cannula and in anesthetized dogs by a mercury manometer attached to a carotid cannula.
The compounds of the instant invention were tested as the hydrochloride salts by the above method in normotensive rats in doses of 50 mg./kg. orally.
Compound 12a (BL-4784a) was tested for its hypotensive activity in rats as follows:
Rats were dosed orally with the test drug (50 mg/kg) or saline and blood pressure measurements were made at 30, 90, 150 and 300 mins. after drug administration.
Saline administration in a volume equivalent to drug administration had only a minimal effect.

[3] = test system: Rabbit Platelet Rich Plasma; assay: In vitro inhibition of induced platelet aggregation in the aggregometer, rabbit platelet rich plasma; format: cell-based; settings: Oryctolagus cuniculus, read-out: EC50 & 95% Confidence Limits
Procedure: The aggregometer method of Born (1), as modified by Mustard et al. (2) was used to assess the in vitro activity of the various compounds as to inhibition of adenosine diphosphate (ADP) and collagen induced platelet aggregation. Platelet rich plasma was separated by centrifugation from citrated (3.8 percent) rabbit blood. […] (3) was used to induce aggregation. The various compounds tested were dissolved in dimethylsulfoxide (DMSO) so that 5 mcl. added to the platelet rich plasma would yield the desired test concentration. Vehicle control trials were done and compared with aggregation induced in platelet rich plasma containing various concentrations of the test compounds. Dose response curves were obtained and Effective Concentration (EC50) values calculated.
Compound 12a (BL-4784A) has been evaluated in a series of in vitro, ex vivo and in vivo animal models of platelet aggregation and thrombosis.

[4] = test system: Dog Platelet Rich Plasma; assay: In vitro inhibition of ADP induced platelet aggregation in the aggregometer, dog platelet rich plasma; format: cell-based; settings: Canis lupus familiaris, read-out: EC50 & 95% Confidence Limits
[5] = test system: Dog Platelet Rich Plasma; assay: Ex vivo ADP induced platelet aggregation in dog PRP after oral drug administration; settings: Canis lupus familiaris, PRP obtained before and 1 hr. after oral drug administration, read-out: ED50, ex vivo inhibition of ADP induced aggregation
Procedure: BL-4784A was also tested ex vivo in dogs where ADP was used to induce aggregation in PRP samples obtained before and 1 hr. after oral drug administration.
Before dosing the animals, blood samples are taken. The blood is centrifuged to obtain the blood platelet-rich plasma. Aggregation of this plasma is induced with ADP or collagen. This is the control.
The animals are then dosed with the compounds to be tested (orally or parenterally). Depending upon the route of administration, one to two hours are allowed to elapse after dosing. Blood is drawn and the same procedure as for the control in untreated animals.
The dose required to produce 50% inhibition of the aggregation is determined by dose response data obtained in this manner.

[6] = test system: biolaser induced thrombosis; assay: Biolaser induced thrombosis in the rabbit ear chamber; format: in vivo
Source text: (§1) Methodology for these three in vivo techniques has been previously reported (4, 5).

[7] = test system: electrically induced carotid artery thrombosis; assay: Electrically induced carotid artery thrombosis in the dog; format: in vivo; settings: Canis lupus familiaris, po
Source text: as §1

[8] = Crystal deposits in tissues of animal species evaluated; format: in vivo; settings: any tissue of any animal species evaluated up to the present time
[9] = In vivo solubility of compound or metabolite; format: physicochemical; settings: compound or its metabolite, versus BL-3459
[10] = test system: blood platelet aggregation; assay: Blood platelet antiaggregative potency compared with BL-3459; settings: versus BL-3459
[11] = Hypotensive activity compared with BL-3459; format: in vivo; settings: associated with antiaggregative activity; versus BL-3459

**Q.** With Cc1cccc2c1CN1CC(=O)NC1=N2 [BL-3459] as the molecule, how does the “Crystal formation in liver” value [1] read?
**A.** formed crystals in the liver of dogs at very high doses

**Q.** Which “Aortic blood pressure lowering” value ([2]; result in words) does the source give for COCc1cccc2c1CN1CC(=O)NC1=N2 [Compound 12a, 6-(α-methoxymethyl)-1,2,3,5-tetrahydroimidazo[2,1-b]quinazolin-2-one] here?
**A.** significant lowering of aortic blood pressure

**Q.** And the “Mean Aortic Blood Pressure % Change” value ([2]; 30 min)?
**A.** -33 ± 4%

**Q.** What about the “Mean Aortic Blood Pressure” value ([2]; 30 min, *P = <.05) of the same molecule?
**A.** 73 ± 5 mm Hg

**Q.** And the “Mean Aortic Blood Pressure % Change” value ([2]; 90 min)?
**A.** -27 ± 4%

**Q.** What about the “Mean Aortic Blood Pressure” value ([2]; 90 min, *P = <.05) of the same molecule?
**A.** 79 ± 3 mm Hg

**Q.** What about the “Mean Aortic Blood Pressure % Change” value ([2]; 150 min) of the same molecule?
**A.** -23 ± 2%

**Q.** What about the “Mean Aortic Blood Pressure” value ([2]; 150 min, *P = <.05) of the same molecule?
**A.** 84 ± 3 mm Hg

**Q.** And the “Mean Aortic Blood Pressure % Change” value ([2]; 300 min)?
**A.** -20 ± 4%

**Q.** What about the “Mean Aortic Blood Pressure” value ([2]; 300 min, *P = <.05) of the same molecule?
**A.** 87 ± 3 mm Hg

**Q.** What about the “Mean Aortic Blood Pressure” value ([2]; time 0 min (before drug)) of the same molecule?
**A.** 111 ± 3 mm Hg

**Q.** What about the EC50 ([3]; ADP induced (2.93 × 10^-5 M)) of the same molecule?
**A.** 0.2 µg/mL (≈ 0.865 µM)

**Q.** What about the EC50 ([3]; Antigen-Antibody complex (egg albumin, 2 μg/ml), PRP from sensitized rabbits) of the same molecule?
**A.** 0.13 µg/mL

**Q.** What about the EC50 ([3]; Arachidonic acid induced (50 μg/ml)) of the same molecule?
**A.** 0.27 µg/mL (≈ 1.17 µM)

**Q.** And the EC50 ([3]; Collagen induced)?
**A.** 0.09 µg/mL (≈ 0.389 µM)

**Q.** And the EC50 ([3]; Thrombin induced (1 unit per ml))?
**A.** 0.63 µg/mL (≈ 2.72 µM)

**Q.** What about the EC50 [4] of the same molecule?
**A.** 0.19 µg/mL (≈ 0.822 µM)

**Q.** And the ED50 [5]?
**A.** 1.79 mg/kg

**Q.** And the ED50 ([6]; Oryctolagus cuniculus, rabbit ear chamber, po)?
**A.** 5.3 mg/kg

**Q.** And the “Activity in in vivo animal models of thrombosis” value ([6]; result in words for three in vivo animal models)?
**A.** significant activity in three in vivo animal models

**Q.** What about the ED50 [7] of the same molecule?
**A.** 10.5 mg/kg

**Q.** And the “Crystal deposits in tissue” value [8]?
**A.** no crystal deposits have been observed in any tissue of any animal species

**Q.** What about the Solubility in vivo [9] of the same molecule?
**A.** more soluble in vivo

**Q.** And the “Potency as blood platelet antiaggregate” value [10]?
**A.** more potent than BL-3459

**Q.** What about the “Degree of hypotensive activity” value [11] of the same molecule?
**A.** lower degree of hypotensive activity
